Results from ChEMBL document CHEMBL1134267 (Bioorg Med Chem Lett, 2001).

Key:
[1] = target: Neuronal acetylcholine receptor subunit alpha-7 (Rattus norvegicus, UniProt Q05941); experiment: Affinity for alpha-7 neuronal nicotinic acetylcholine receptor subtype determined by inhibition of [3H]-MLA binding to rat brain membranes; assay type: cell membranes, Membrane
[2] = target: Neuronal acetylcholine receptor alpha4/beta2 (Rattus norvegicus); experiment: Affinity for Nicotinic acetylcholine receptor alpha4-beta2 tested by analogue-induced inhibition of [3H]NIC binding to rat striatal membranes

Neuronal acetylcholine receptor subunit alpha-7, sequence (Q05941 whole entry): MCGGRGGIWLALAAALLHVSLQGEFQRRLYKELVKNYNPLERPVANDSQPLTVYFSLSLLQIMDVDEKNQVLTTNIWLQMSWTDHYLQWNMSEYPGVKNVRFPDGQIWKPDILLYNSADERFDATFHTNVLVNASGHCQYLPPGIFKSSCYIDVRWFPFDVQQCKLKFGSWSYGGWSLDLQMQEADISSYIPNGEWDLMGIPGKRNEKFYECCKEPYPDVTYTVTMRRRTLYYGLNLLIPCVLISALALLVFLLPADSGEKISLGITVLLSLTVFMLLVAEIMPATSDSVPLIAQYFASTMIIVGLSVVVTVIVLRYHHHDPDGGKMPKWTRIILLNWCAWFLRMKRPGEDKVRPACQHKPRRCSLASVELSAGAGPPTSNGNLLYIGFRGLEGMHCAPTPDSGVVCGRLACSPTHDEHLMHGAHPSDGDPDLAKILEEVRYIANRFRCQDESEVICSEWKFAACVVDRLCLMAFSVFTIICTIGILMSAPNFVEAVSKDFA

Row | SMILES | Ki [1] [nM] | Ki [2] [nM]
1 | CN1CC[C@@H]2CCc3cc[n+]([BH2-]C#N)cc3[C@@H]21 | 600 | 2400
2 | c1cnc2c(c1)[C@H]1NCC[C@H]1CC2 | > 100000 | 10500
3 | c1cc2c(cn1)[C@@H]1NCC[C@@H]1CC2 | 20200 | –
4 | CN1CC[C@H]2CCc3c(ccc[n+]3[BH2-]C#N)[C@H]21 | > 100000 | –
5 | CN1CC[C@H]2CCc3ncccc3[C@H]21 | > 100000 | 12200
6 | CN1CCC[C@H]1c1ccc[n+]([BH2-]C#N)c1 | 41 | 15200
7 | CN1CC[C@@H]2CCc3ccncc3[C@@H]21 | 590 | 400
8 | c1cncc([C@@H]2CCCN2)c1 [NORNICOTINE] | 1340 | –
